Values after ≈ are worked out from the molar mass of the structure shown.
Tests used:
[1] = molecular target: T1, Prolyl endopeptidase, Prolyl Oligopeptidase (hPREP) (Homo sapiens, UniProt P48147); experiment: biochemical
T1 sequence (P48147 1-710): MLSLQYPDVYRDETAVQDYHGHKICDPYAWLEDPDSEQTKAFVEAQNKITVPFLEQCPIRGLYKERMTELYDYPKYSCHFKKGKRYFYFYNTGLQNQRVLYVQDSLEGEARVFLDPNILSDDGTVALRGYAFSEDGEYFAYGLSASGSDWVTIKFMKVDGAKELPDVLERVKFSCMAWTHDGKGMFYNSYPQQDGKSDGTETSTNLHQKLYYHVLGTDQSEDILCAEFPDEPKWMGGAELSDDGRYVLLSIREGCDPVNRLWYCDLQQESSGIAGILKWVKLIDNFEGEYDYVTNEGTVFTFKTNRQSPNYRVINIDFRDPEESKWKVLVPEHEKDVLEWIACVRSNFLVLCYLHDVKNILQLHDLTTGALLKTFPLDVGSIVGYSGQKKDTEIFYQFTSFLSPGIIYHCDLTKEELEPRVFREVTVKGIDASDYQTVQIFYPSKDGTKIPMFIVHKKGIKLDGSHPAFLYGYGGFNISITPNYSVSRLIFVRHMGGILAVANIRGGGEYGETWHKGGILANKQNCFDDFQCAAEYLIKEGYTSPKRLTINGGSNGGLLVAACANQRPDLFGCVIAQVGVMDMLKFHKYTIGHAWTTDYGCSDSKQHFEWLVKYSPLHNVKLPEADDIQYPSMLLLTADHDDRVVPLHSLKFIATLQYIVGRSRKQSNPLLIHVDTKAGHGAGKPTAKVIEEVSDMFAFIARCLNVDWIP

hFAP (M39-A757) = molecular target: T2, hFAP (M39-A757) (Homo sapiens, UniProt Q12884); experiment: biochemical
T2 sequence (Q12884 39-757): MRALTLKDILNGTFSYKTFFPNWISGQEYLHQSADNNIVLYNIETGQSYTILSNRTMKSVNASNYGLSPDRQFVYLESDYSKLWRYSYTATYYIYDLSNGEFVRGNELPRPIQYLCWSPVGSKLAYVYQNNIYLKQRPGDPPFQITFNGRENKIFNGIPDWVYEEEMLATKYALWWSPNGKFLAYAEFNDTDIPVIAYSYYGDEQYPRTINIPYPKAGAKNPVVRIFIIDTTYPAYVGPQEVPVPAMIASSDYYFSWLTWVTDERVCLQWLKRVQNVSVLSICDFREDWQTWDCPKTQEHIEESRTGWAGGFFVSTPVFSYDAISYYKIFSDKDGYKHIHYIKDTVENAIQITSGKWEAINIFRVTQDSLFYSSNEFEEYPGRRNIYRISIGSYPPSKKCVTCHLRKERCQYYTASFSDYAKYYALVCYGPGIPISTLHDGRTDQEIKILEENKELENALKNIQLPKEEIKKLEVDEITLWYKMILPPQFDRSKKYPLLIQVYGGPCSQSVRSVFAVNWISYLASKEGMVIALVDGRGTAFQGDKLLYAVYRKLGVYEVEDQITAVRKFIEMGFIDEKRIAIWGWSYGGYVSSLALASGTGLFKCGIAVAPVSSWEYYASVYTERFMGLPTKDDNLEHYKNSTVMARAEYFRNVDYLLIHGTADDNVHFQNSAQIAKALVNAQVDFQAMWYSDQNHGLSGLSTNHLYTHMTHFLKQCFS
Experimental: Compounds were tested in a direct binding assay using 8K surface plasmon resonance biosensor (GE Healthcare) at 20° C. Immobilization of hFAP (M39-A757) on a CMD200M sensor chip (Xantec) was performed using standard amine coupling procedure in immobilization buffer (10 mM HEPES, 150 mM NaCl, 0.05% Tween20, pH 7.4). The surface was washed with 10 mM aq NaOH, 1M NaCl before being activated with EDC/NHS (GE Healthcare), followed by immobilization of hFAP (in 10 mM Acetate pH 5.0). Finally, the surface was deactivated by ethanolamine. Immobilization levels of hFAP were around 4000-6000 RU. The reference spot was treated as described, omitting the injection of hFAP. Compound concentration series were injected over the immobilized protein in increasing concentrations (2-500 nM) using single cycle kinetics in running buffer (20 mM TRIS, 150 mM NaCl, 0.05% Tween20, 1% DMSO, pH 7.4). Interaction models were fitted globally to the experimental traces, enabling determination of kon, koff and Kd.

Kinetic solubility = type: physicochemical; conditions: kinetic from dmso stock, n = 1 or average (n = 2-4)
Experimental: Kinetic solubility was measured as described in Comput Aided Mol Des 2015, 29, 795.

Rat Hepatocytes (rHep) = experiment: Metabolic stability in rat hepatocytes (rHep); type: in vitro ADME; conditions: n = 1 or geometric mean (n = 2-3)
Experimental: Metabolic stability in rat hepatocytes was measured as described in J Comput Aided Mol Des 2015, 29, 795.

hFAP = molecular target: T3, hFAP (Homo sapiens, UniProt Q12884); experiment: biochemical
T3 sequence (Q12884 38-760): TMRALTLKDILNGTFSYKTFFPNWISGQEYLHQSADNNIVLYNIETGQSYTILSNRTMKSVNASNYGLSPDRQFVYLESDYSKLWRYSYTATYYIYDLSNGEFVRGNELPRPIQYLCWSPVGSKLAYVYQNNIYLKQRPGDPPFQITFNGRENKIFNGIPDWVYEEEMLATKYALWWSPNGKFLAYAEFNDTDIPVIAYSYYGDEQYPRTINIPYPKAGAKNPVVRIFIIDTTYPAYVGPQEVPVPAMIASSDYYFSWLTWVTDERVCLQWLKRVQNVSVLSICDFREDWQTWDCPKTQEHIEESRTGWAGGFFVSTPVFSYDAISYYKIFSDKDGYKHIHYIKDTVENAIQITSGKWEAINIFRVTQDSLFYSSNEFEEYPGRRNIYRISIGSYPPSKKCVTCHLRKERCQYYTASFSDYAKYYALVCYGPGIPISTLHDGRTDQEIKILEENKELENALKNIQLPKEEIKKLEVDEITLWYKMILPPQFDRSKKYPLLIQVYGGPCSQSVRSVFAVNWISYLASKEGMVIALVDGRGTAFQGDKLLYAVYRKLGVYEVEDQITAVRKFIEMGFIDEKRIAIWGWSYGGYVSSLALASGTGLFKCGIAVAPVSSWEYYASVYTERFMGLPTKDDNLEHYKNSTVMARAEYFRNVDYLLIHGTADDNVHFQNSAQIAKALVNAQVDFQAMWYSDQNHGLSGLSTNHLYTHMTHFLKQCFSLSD
Experimental: 384 low volume black plates (Greiner #784076) were used. 4 μL, 0.48 nM enzyme solution (100 mM Tris HCl, 100 mM NaCl, 0.05% Chaps, pH 7.4) was added to 40 nL compounds (in DMSO) at 10 CR, 3 fold dilution series from 50 μM FAC. Plates were incubated for 15 min at rt in dark. 4 μL, 40 μM substrate solution (100 mM Tris HCl, 100 mM NaCl, 0.05% Chaps, pH 7.4) was added to each well. Plates were centrifuged at 1000 rpm and incubated for 30 min at rt in dark. The plates were read on a PHERAstar® reader with excitation 340 nm and emission 460 nm. Data were analyzed in Genedata Screener®. IC50 values were determined by plotting % inhibition versus log compound concentration and using a one site dose response model.

[2] = Metabolic stability in human liver microsomes (HLM); type: in vitro ADME; conditions: n = 1 or average (n = 2-3)
Experimental: Metabolic stability in HLM was measured as described in J Comput Aided Mol Des 2015, 29, 795.
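For Kd in this document: surface plasmon resonance direct binding to hFAP amine-coupled on a sensor chip, rising compound concentrations by single cycle kinetics, Kd from global fit of interaction models.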

Row | SMILES | IC50 [1] | Kd (hFAP (M39-A757)) | solubility (Kinetic solubility) | rHeps CLint (Rat Hepatocytes (rHep)) | IC50 (hFAP) | microsomal CLint [2]
1 | N#C[C@@H]1CSCN1C(=O)CNC(=O)c1ccnc2ccc(C3CC3)cc12 [Example 77, (R)—N-(2-(4-Cyanothiazolidin-3-yl)-2-oxoethyl)-6-cyclopropylquinoline-4-carboxamide] | 38 nM | 1.4 nM | 470 µM (≈ 172 µg/mL) | 44 μL/min/1E6 | 0.59 nM | 58 µL/min/mg
2 | N#C[C@@H]1CSCN1C(=O)CNC(=O)c1ccnc2ccc(OCC3CC(F)(F)C3)cc12 [Example 8, (R)—N-(2-(4-Cyanothiazolidin-3-yl)-2-oxoethyl)-6-((3,3-difluorocyclobutyl)methoxy)quinoline-4-carboxamide] | 1200 nM | – | 8.3 µM (≈ 3.71 µg/mL) | 11 μL/min/1E6 | – | 45 µL/min/mg
3 | N#C[C@@H]1CSCN1C(=O)CNC(=O)c1ccnc2ccc(OC(CF)CF)cc12 [Example 7, (R)—N-(2-(4-Cyanothiazolidin-3-yl)-2-oxoethyl)-6-((1,3-difluoropropan-2-yl)oxy)quinoline-4-carboxamide] | 150 nM | – | 550 µM (≈ 231 µg/mL) | 9.1 μL/min/1E6 | – | 40 µL/min/mg
4 | N#C[C@@H]1CSCN1C(=O)CNC(=O)c1ccnc2ccc(OCC(F)F)cc12 [Example 2, (R)—N-(2-(4-Cyanothiazolidin-3-yl)-2-oxoethyl)-6-(2,2-difluoroethoxy)quinoline-4-carboxamide] | 190 nM | 0.052 nM | 490 µM (≈ 199 µg/mL) | 5.9 μL/min/1E6 | – | 36 µL/min/mg
5 | Cc1cc(C(C)c2ccc3nccc(C(=O)NCC(=O)N4CSC[C@H]4C#N)c3c2)on1 (mixture of isomers) [Example 49, N-(2-((R)-4-Cyanothiazolidin-3-yl)-2-oxoethyl)-6-((RS)-1-(3-methylisoxazol-5-yl)ethyl)quinoline-4-carboxamide] | 110 nM | 0.13 nM | 220 µM (≈ 95.8 µg/mL) | 24 μL/min/1E6 | – | 46 µL/min/mg
6 | CC1(c2ccc3nccc(C(=O)NCC(=O)N4CSC[C@H]4C#N)c3c2)CCOCC1 [Example 21, (R)—N-(2-(4-Cyanothiazolidin-3-yl)-2-oxoethyl)-6-(4-methyl-tetrahydro-2H-pyran-4-yl)quinoline-4-carboxamide] | 8.3 nM | 140 nM | 500 µM (≈ 212 µg/mL) | 7.9 μL/min/1E6 | – | 100 µL/min/mg
7 | CC(c1ccnc(C(F)(F)F)c1)c1ccc2nccc(C(=O)NCC(=O)N3CSC[C@H]3C#N)c2c1 (mixture of isomers) [Example 52, N-(2-((R)-4-Cyanothiazolidin-3-yl)-2-oxoethyl)-6-((RS)-1-(2-(trifluoromethyl)pyridin-4-yl)ethyl)quinoline-4-carboxamide] | 320 nM | 0.2 nM | 120 µM (≈ 59.9 µg/mL) | 49 μL/min/1E6 | – | 210 µL/min/mg
8 | CC(c1ccc2nccc(C(=O)NCC(=O)N3CSC[C@H]3C#N)c2c1)c1ccc(Cl)cn1 (mixture of isomers) [Example 48, 6-((RS)-1-(5-Chloropyridin-2-yl)ethyl)-N-(2-((R)-4-cyanothiazolidin-3-yl)-2-oxoethyl)quinoline-4-carboxamide] | 240 nM | 0.12 nM | 240 µM (≈ 112 µg/mL) | 27 μL/min/1E6 | – | > 300 µL/min/mg
9 | CC1(C)CC(c2ccc3nccc(C(=O)NCC(=O)N4CSC[C@H]4C#N)c3c2)CO1 (mixture of isomers) [Example 61, N-(2-((R)-4-Cyanothiazolidin-3-yl)-2-oxoethyl)-6-(5,5-dimethyltetrahydrofuran-3-yl)quinoline-4-carboxamide] | 640 nM | – | > 1000 µM | 23 μL/min/1E6 | – | 77 µL/min/mg
10 | Cc1cc(C2(c3ccc4nccc(C(=O)NCC(=O)N5CSC[C@H]5C#N)c4c3)CC2)no1 [Example 45, (R)—N-(2-(4-Cyanothiazolidin-3-yl)-2-oxoethyl)-6-(1-(5-methylisoxazol-3-yl)cyclopropyl)quinoline-4-carboxamide] | 150 nM | 0.13 nM | 250 µM (≈ 112 µg/mL) | 21 μL/min/1E6 | – | 70 µL/min/mg
11 | N#C[C@@H]1CSCN1C(=O)CNC(=O)c1ccnc2ccc(C3(c4ccnc(C(F)(F)F)c4)CC3)cc12 [Example 13, (R)—N-(2-(4-Cyanothiazolidin-3-yl)-2-oxoethyl)-6-(1-(2-(trifluoromethyl)pyridin-4-yl)cyclopropyl)quinoline-4-carboxamide] | 460 nM | 0.12 nM | 78 µM (≈ 39.9 µg/mL) | 140 μL/min/1E6 | – | > 300 µL/min/mg
12 | N#C[C@@H]1CSCN1C(=O)CNC(=O)c1ccnc2ccc(C3(C#N)CCCCC3)cc12 [Example 60, (R)-6-(1-Cyanocyclohexyl)-N-(2-(4-cyanothiazolidin-3-yl)-2-oxoethyl)quinoline-4-carboxamide] | 290 nM | – | 180 µM (≈ 78 µg/mL) | 110 μL/min/1E6 | – | > 300 µL/min/mg
13 | N#C[C@@H]1CSCN1C(=O)CNC(=O)c1ccnc2ccc(CCC(F)(F)F)cc12 [Example 58, (R)—N-(2-(4-Cyanothiazolidin-3-yl)-2-oxoethyl)-6-(3,3,3-trifluoropropyl)quinoline-4-carboxamide] | 64 nM | – | 700 µM (≈ 296 µg/mL) | 17 μL/min/1E6 | – | 77 µL/min/mg
14 | COC(C)c1ccc2nccc(C(=O)NCC(=O)N3CSC[C@H]3C#N)c2c1 (mixture of isomers) [Example 26, N-(2-((R)-4-Cyanothiazolidin-3-yl)-2-oxoethyl)-6-((RS)-1-methoxyethyl)quinoline-4-carboxamide] | 470 nM | 4.7 nM | – | – | 0.84 nM | –
15 | CC(F)(F)Cc1ccc2nccc(C(=O)NCC(=O)N3CSC[C@H]3C#N)c2c1 [Example 53, (R)—N-(2-(4-Cyanothiazolidin-3-yl)-2-oxoethyl)-6-(2,2-difluoropropyl)quinoline-4-carboxamide] | 6.5 nM | – | 190 µM (≈ 76.8 µg/mL) | 45 μL/min/1E6 | – | 36 µL/min/mg

Source: patent publication US20260070899A1, “N-(2-(4-CYANOTHIAZOLIDIN-3-YL)-2-OXOETHYL)-QUINOLINE-4-CARBOXAMIDES” (AstraZeneca AB, priority 2022, published 2026)
